Measured values: PMC4747102 (European journal of medicinal chemistry, 2015)

Key:
[1] = test system: MDA-MB-231 (triple negative breast cancer) cells; type: cell-based, human
[2] = test system: MCF-7 (ER+ breast cancer) cells; test: cells; type: cell-based, human

CC(C)CC(c1cc(O)c2c(c1O)C(=O)c1ccccc1C2=O)N(CCCl)CCCl (stereo not shown) [5f, 2-(1-(Bis(2-chloroethyl)amino)-3-methylbutyl)-1,4-dihydroxyanthracene-9,10-dione]
fold stronger than compound 5b [1]: approximately 70 fold

O=C1c2ccccc2C(=O)c2c(O)c(C(c3ccccc3F)N(CCCl)CCCl)cc(O)c21 (stereo not shown) [5i, 2-((Bis(2-chloroethyl)amino) (2-fluorophenyl)methyl)-1,4-dihydroxyanthracene-9,10-dione]
fold increase in inhibitory activity compared to chlorambucil [1]: ca. 900 fold

O=C1c2ccccc2C(=O)c2c(O)c(C(c3ccc(F)cc3)N(CCCl)CCCl)cc(O)c21 (stereo not shown) [5k, 2-((Bis(2-chloroethyl)amino)(4-fluorophenyl)methyl)-1,4-dihydroxyanthracene-9,10-dione]
times more potent than chlorambucil [2]: over 100 times

COc1cccc2c1C(=O)c1c(O)c3c(c(O)c1C2=O)C[C@@](O)(C(=O)CO)C[C@@H]3O[C@H]1C[C@H](N)[C@H](O)[C@H](C)O1 [Doxorubicin, reference compound]
IC50 ([2]; Homo sapiens, MCF7, 120 h, read-out: IC50 MCF-7): 0.294 nM
